pIC50: −log10 of the molar value.
Experiments:
Rattus norvegicus = organism: Rattus norvegicus; assay: Inhibition of blood brain barrier choline transporter-mediated [3H]choline uptake in Fischer-344 rat brain at 250 uM by perfusion technique; format: tissue-based
[1] = Inhibition of nAChR-mediated nicotine-induced [3H]dopamine release

Row | SMILES | logKi (Rattus norvegicus) | pIC50 [1]
1 | c1cc(-c2ccc(CCC[n+]3ccc4c(c3)CCCC4)cc2)ccc1CCC[n+]1ccc2c(c1)CCCC2 | 1.2 | –
2 | Cc1cc[n+](CCCc2ccc(-c3ccc(CCC[n+]4ccc(C)cc4)cc3)cc2)cc1 | 1.63 | –
3 | Cc1cc[n+](CCCc2ccc(-c3ccc(CCC[n+]4ccc(C)c(C)c4)cc3)cc2)cc1C | 1.75 | –
4 | Cc1ccc[n+](CCCCCCCCCCCC[n+]2cccc(C)c2)c1 | – | 8.70
5 | C1#Cc2ccc[n+](c2)CCCCCCCCCCC[n+]2cccc(c2)C#CCCCCCCCC1 | 1.18 | –
6 | Cc1cccc[n+]1CCCc1ccc(-c2ccc(CCC[n+]3ccccc3C)cc2)cc1 | 2 | –
7 | c1cc2c([n+](CCCc3ccc(-c4ccc(CCC[n+]5cccc6c5CCCC6)cc4)cc3)c1)CCCC2 | 1.37 | –
8 | Cc1cc[n+](CCC#Cc2ccc(C#CCC[n+]3ccc(C)c(C)c3)cc2)cc1C | 0.924 | –
9 | Cc1cc(C)c[n+](CCCCc2ccc(CCCC[n+]3cc(C)cc(C)c3)cc2)c1 | 2.56 | –
10 | Cc1cc[n+](C#Cc2ccc(-c3ccc(C#C[n+]4ccc(C)c(C)c4)cc3)cc2)cc1C | 1.98 | –
11 | C1#Cc2ccc[n+](c2)CCCCCCCCC[n+]2cccc(c2)C#CCCCCCCCC1 | 0.146 | –
12 | CN1CCCC1c1ccc[n+](CCCc2ccc(-c3ccc(CCC[n+]4cccc(C5CCCN5C)c4)cc3)cc2)c1 (stereo unspecified) | 1.73 | –
13 | CCCCc1ccc(CCCC[n+]2ccc(C)cc2)cc1 | 2.69 | –
14 | Cc1cc[n+](CCC#Cc2ccc(C#CCC[n+]3ccc(C)cc3)cc2)cc1 | 0.929 | –
15 | Cc1cc[n+](CCCCCCCCCCCC[n+]2ccc(C)cc2)cc1 | 1.93 | –
16 | OCCCc1ccc[n+](CCCc2ccc(-c3ccc(CCC[n+]4cccc(CCCO)c4)cc3)cc2)c1 | 1.86 | –
17 | Cc1cc(C)c[n+](CCC#Cc2ccc(C#CCC[n+]3cc(C)cc(C)c3)cc2)c1 | 0.867 | –
18 | C(#Cc1ccc(C#CCC[n+]2ccc3c(c2)CCCC3)cc1)CC[n+]1ccc2c(c1)CCCC2 | 0.732 | –
19 | CCCCC#CCCCCCC[n+]1cccc(C2CCCN2C)c1 (stereo unspecified) | 1.92 | –
20 | Cc1ccc[n+](CCC#Cc2ccc(C#CCC[n+]3cccc(C)c3)cc2)c1 | 0.595 | –
21 | CCCCC#CCCCCCC[n+]1ccc(C)cc1 | 2.58 | –
22 | c1ccc2c(c1)ccc[n+]2CCCCCC[n+]1cccc2ccccc21 | 1.26 | –
23 | Cc1cc(C)c[n+](CCCCCCCCCCC[n+]2cc(C)cc(C)c2)c1 | 1.81 | –
24 | CC[N+](CC)(CC)CCCCCCCCCCCC[n+]1cccc(C)c1 | 1.34 | –
25 | OCCCc1ccc[n+](CCCc2ccc(CCC[n+]3cccc(CCCO)c3)cc2)c1 | 2.09 | –
26 | C1#Cc2ccc[n+](c2)CCCCCC[n+]2cccc(c2)C#CCCCCCCCC1 | 1.53 | –

From ChEMBL document CHEMBL1159105, “Predictive screening model for potential vector-mediated transport of cationic substrates at the blood-brain barrier choline transporter” (Bioorg Med Chem Lett, 2010)
